Data taken from PubChem BioAssay AID330 (DTP/NCI, 2004).
Where “and” joins values, the source holds several entries; their conditions need not be identical. Equal values may be shown once. Toxic doses and inconclusive results are not listed. How the source made its calls: active means survival T/C of 150% or more; inactive means T/C below 125% in these data.

System: P388 leukemia ip, CD2F1 mice, survival T/C
Test: NCI In Vivo Anticancer Drug Screen. Data for tumor model P388 Leukemia (intraperitoneal) in CD2F1 (CDF1) mice
Conditions: endpoint: median survival time, higher = longer survival
In short: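 Mice carrying the transplanted tumor received test compound or vehicle. Survival was recorded in each group, and the value is the treated-group measurement divided by that of the vehicle-treated control group.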

[1] = dose: 50.0 mg/kg/injection, schedule: Q01DX009 (ip), vehicle: Klucel (hydroxypropylcellulose) (HPC)
[2] = dose: 100.0 mg/kg/injection, schedule: Q01DX009 (ip), vehicle: Klucel (hydroxypropylcellulose) (HPC)
[3] = dose: 200.0 mg/kg/injection, schedule: Q01DX009 (ip), vehicle: Klucel (hydroxypropylcellulose) (HPC)
[4] = dose: 50.0 mg/kg/injection, schedule: Q01DX005 (ip), vehicle: saline with Tween-80
[5] = dose: 100.0 mg/kg/injection, schedule: Q01DX005 (ip), vehicle: saline with Tween-80
[6] = dose: 200.0 mg/kg/injection, schedule: Q01DX005 (ip), vehicle: saline with Tween-80
[7] = dose: 50.0 mg/kg/injection, schedule: Q01DX005 (ip), vehicle: Klucel (hydroxypropylcellulose) (HPC)
[8] = dose: 100.0 mg/kg/injection, schedule: Q01DX005 (ip), vehicle: Klucel (hydroxypropylcellulose) (HPC)
[9] = dose: 200.0 mg/kg/injection, schedule: Q01DX005 (ip), vehicle: Klucel (hydroxypropylcellulose) (HPC)
[10] = dose: 60.0 mg/kg/injection, schedule: Q01DX005 (ip), vehicle: saline with Tween-80

Measured: T/C

O=C(CC1CCCC/C1=N\O)NO (configuration not stated)
inactive: [1] 100 % of control | dose: 100.0 mg/kg/injection, schedule: Q01DX001 (ip), vehicle: Klucel (hydroxypropylcellulose) (HPC) 106 % of control | [2] 100 % of control | dose: 200.0 mg/kg/injection, schedule: Q01DX001 (ip), vehicle: Klucel (hydroxypropylcellulose) (HPC) 112 % of control | [3] 117 % of control | dose: 400.0 mg/kg/injection, schedule: Q01DX001 (ip), vehicle: Klucel (hydroxypropylcellulose) (HPC) 109 % of control

CCN(CC)c1ccc(N=C(NC#N)SC)cc1
inactive: [1] 104 % of control | [2] 103 % of control | [3] 106 % of control

CN1CCC(O)(c2ccccc2)C(O)C1 (configuration not stated)
inactive: [4] 95 % of control | [5] 93 % of control | [6] 90 % of control

O=c1c2cc3c(=O)n(CC[P+](c4ccccc4)(c4ccccc4)c4ccccc4)c(=O)c3cc2c(=O)n1CC[P+](c1ccccc1)(c1ccccc1)c1ccccc1
inactive: dose: 0.78 mg/kg/injection, schedule: Q01DX009 (ip), vehicle: water 99 % of control | dose: 1.56 mg/kg/injection, schedule: Q01DX009 (ip), vehicle: water 97 % of control | dose: 3.13 mg/kg/injection, schedule: Q01DX009 (ip), vehicle: water 93 % of control

O=C1N(C2CCCCC2)C(/C=C/c2ccccc2)C1(c1ccccc1)c1ccccc1 (configuration not stated)
inactive: dose: 25.0 mg/kg/injection, schedule: Q01DX005 (ip), vehicle: Klucel (hydroxypropylcellulose) (HPC) 96 % of control | [7] 94 % of control | [8] 88 % of control | [9] 89 % of control and 91 % of control

CN(C)n1c(O)c(N=O)sc1=S
inactive: [7] 96 % of control | [8] 95 % of control

CC1CN(Cc2ccccc2)CC(C)N1Cc1ccccc1 (configuration not stated)
inactive: [4] 103 % of control | [5] 105 % of control | [6] 103 % of control

CC(C)CC1NC(=O)OC1=O (configuration not stated)
inactive: [4] 98 % of control | [5] 94 % of control | [6] 91 % of control

Nc1ncc(C2CO2)c(-c2ccccc2)n1 (configuration not stated)
inactive: dose: 25.0 mg/kg/injection, schedule: Q01DX009 (ip), vehicle: Klucel (hydroxypropylcellulose) (HPC) 94 % of control | [1] 103 % of control | [2] 108 % of control

O=[N+]([O-])c1cccc2c(Nc3ccc(S(=O)(=O)Nc4nccs4)cc3)c3ccccc3nc12
inactive: dose: 15.0 mg/kg/injection, schedule: Q01DX005 (ip), vehicle: saline with Tween-80 95 % of control | dose: 30.0 mg/kg/injection, schedule: Q01DX005 (ip), vehicle: saline with Tween-80 100 % of control | [10] 102 % of control and 97 % of control

CNC(=O)Oc1ccc(/C=N/Sc2cccc([N+](=O)[O-])c2)cc1
inactive: dose: 50.0 mg/kg/injection, schedule: Q01DX009 (ip), vehicle: saline with Tween-80 101 % of control | dose: 100.0 mg/kg/injection, schedule: Q01DX009 (ip), vehicle: saline with Tween-80 89 % of control

CC(=O)C(C(=O)Nc1cccc2ccccc12)C(C)=NCCN=C(C)C(C(C)=O)C(=O)Nc1cccc2ccccc12.[Cu] (configuration not stated)
inactive: [4] 94 % of control | [5] 96 % of control | [6] 96 % of control

O=S(=O)(c1ccc(F)cc1)N(CCCCCN(S(=O)(=O)c1ccc(F)cc1)S(=O)(=O)c1ccc(F)cc1)S(=O)(=O)c1ccc(F)cc1
inactive: [10] 97 % of control | dose: 120.0 mg/kg/injection, schedule: Q01DX005 (ip), vehicle: saline with Tween-80 91 % of control | dose: 240.0 mg/kg/injection, schedule: Q01DX005 (ip), vehicle: saline with Tween-80 90 % of control

O=C(Nc1n[nH]c(NC(=O)C(F)(F)F)n1)C(F)(F)F
inactive: [7] 103 % of control | [8] 103 % of control | [9] 100 % of control

Clc1nc2nc(C3CC3)[nH]c2nc1Cl
inactive: dose: 100.0 mg/kg/injection, schedule: Q04DX003 (ip), vehicle: saline with Tween-80 100 % of control | dose: 200.0 mg/kg/injection, schedule: Q04DX003 (ip), vehicle: saline with Tween-80 100 % of control | dose: 400.0 mg/kg/injection, schedule: Q04DX003 (ip), vehicle: saline with Tween-80 100 % of control
